Measured values taken from patent US20210386761A1, “COMPOSITION FOR PREVENTING OR TREATING INFLAMMATORY BOWEL DISEASE, CONTAINING, AS ACTIVE INGREDIENT, TAURODEOXYCHOLIC ACID OR PHARMACEUTICALLY ACCEPTABLE SALT THEREOF” (SHAPERON INC., priority 2019, published 2021).

Columns and labels:
[1] = tested on: inflammatory bowel disease-induced mouse model (DSS); assay: Histopathological symptom analysis (colon length, histological state and score) in 2% DSS mouse model; type: in vivo
Procedure: After the experiment was completed, the mice were euthanized with CO2 and the bowels were excised. Next, the bowels were put in cold 1×DPBS and the remaining mesenteric adipose tissue was isolated. At this time, the colon length was measured. Next, the tail end of the colon was opened and wound up with scissors to obtain colon tissue. The obtained colon tissue was fixed in 10% neutral buffered formalin (Sigma-Aldrich, HT501128-4L, St. Louis, Mo., USA) at room temperature for 48 hours and then treated in a tissue processor (Excelsior ES, Thermo scientific, Waltham, Mass., USA) for 12 hours. The processed tissue was sectioned and paraffinized using a microtome (Microm, HM 340E, Thermo Scientific, Waltham, Mass., USA) and an embedding system (HistoStar, Thermo Scientific, Waltham, Mass., USA). Next, the processed tissue was stained with hematoxylin and eosin, and visualized under an optical microscope (Motic, BA310, Redding, Calif., USA) to confirm the histopathological state, and the histopathological state was scored to histological score according to the criteria in the following [Table 2].
(§1) Specifically, female C57BL/6 mice were fed with a 2% DSS solution or DPBS together with drinking water for 7 days from Day 0 of the experiment by the same method as that described in <Example 1>, DPBS or 5 mg/kg TDCA was administered to the mice by oral gavage one time a day for 6 days from Day 1 of the experiment, and the body weight and DAI were measured daily. As a control, mice freely fed with drinking water were used. Next, the mice were sacrificed on Days 5 and 7 of the experiment by the same method as that described in <Example 2>, and histopathological symptom analysis was performed.
as §1, with “or 10, 5, 2.5, or 1” for “or 5”, “1” for “1 of”, “used.” for “used. Next, the mice were sacrificed on Days 5 and 7 of the experiment by the same method as that described in <Example 2>, and histopathological symptom analysis was performed.”
Next, the mice were sacrificed on Day 8 of the experiment by the same method as that described in <Example 2>, and histopathological symptom analysis was performed.
The mice were sacrificed on Day 8 of the experiment by the same method as that described in <Example 2>, and the colon length was measured.

IL-6 = assay: Pro-inflammatory cytokine ELISA of colon tissue, IL-6; type: in vivo, mouse; settings: for IL-6 in the colon tissue: Day 7
Procedure: (§2) In order to evaluate the clinical symptoms-improving efficacy in comparison with those by clinical prescription drugs, inflammatory bowel disease was induced by 7-day or repeated administration of 3% or 2.5% DSS solution, and tofacitinib 10 mg/kg, 5-ASA 100 mg/kg or 200 mg/kg, prednisolone 1 mg/kg, and TDCA 2.5 mg/kg were administered one time a day from the start date of DSS administration. From the start date of DSS administration, TDCA 2.5 mg/kg was administered one time a day (QD), two times a day (BID), and three times a day (TID).
(§3) A colon was obtained from a mouse which had been subjected to an experiment by the same method as that described in <Example 2>, the peripheral colon was cut into 2 cm in length and the weight was recorded. Next, the colon was chopped into 1 mm pieces and frozen on ice, treated with 500 μl of cold DPBS containing protease inhibitor (Roche, 11836170001, Basel, Switzerland), and homogenized for 10 to 20 seconds using an electric homogenizer (IKA T10 Basic, Wilmington, SE, USA). The homogenate was centrifuged at 4° C. for 10 minutes at 12,000×g to obtain a supernatant. ELISA analysis was performed using the obtained supernatant, IL-6 DuoSet ELISA kit (R & D systems, USA), IL-1β DuoSet ELISA kit (R & D systems, USA), and TNF-α DuoSet ELISA kit (R & D systems, USA) according to the manufacturer's procedure to confirm the production of pro-inflammatory cytokines.
as §1, with “solution” for “solution or DPBS”, “Day” for “Days 5 and”, “3>,” for “2>,”, “inflammatory cell and proinflammatory cytokine” for “histopathological symptom”
as §1, with “solution” for “solution or DPBS”, “gavage” for “gavage one time a day for 6 days”, “DSS administration or 2 days before DSS administration,” for “the experiment,”, “Day” for “Days 5 and”, “3>,” for “2>,”, “the inflammatory cell and proinflammatory cytokine” for “histopathological symptom”

IL-1β = assay: Pro-inflammatory cytokine ELISA of colon tissue, IL-1β; type: in vivo, mouse; settings: for IL-1β in the colon tissue: Day 7
Procedure: as §2, §3
as §1, with “solution” for “solution or DPBS”, “Day” for “Days 5 and”, “3>,” for “2>,”, “inflammatory cell and proinflammatory cytokine” for “histopathological symptom”
as §1, with “solution” for “solution or DPBS”, “gavage” for “gavage one time a day for 6 days”, “DSS administration or 2 days before DSS administration,” for “the experiment,”, “Day” for “Days 5 and”, “3>,” for “2>,”, “the inflammatory cell and proinflammatory cytokine” for “histopathological symptom”

TNF-α = assay: Pro-inflammatory cytokine ELISA of colon tissue, TNF-α; type: in vivo, mouse; settings: for TNF-α in the colon tissue: Day 7, FIG. 7B
Procedure: as §2, §3
as §1, with “solution” for “solution or DPBS”, “gavage” for “gavage one time a day for 6 days”, “DSS administration or 2 days before DSS administration,” for “the experiment,”, “Day” for “Days 5 and”, “3>,” for “2>,”, “the inflammatory cell and proinflammatory cytokine” for “histopathological symptom”

[2] = 2% DSS 7 days, 5 mg/kg TDCA oral gavage, FIG. 2B
[3] = 2% DSS 7 days, 10, 5, 2.5, or 1 mg/kg TDCA, Day 8, FIG. 5B
[4] = 2% DSS 7 days, 5 mg/kg TDCA oral gavage, FIG. 3B
[5] = 3% DSS 7 days, TDCA 2.5 mg/kg vs tofacitinib 10 mg/kg and 5-ASA 100 mg/kg
[6] = DSS+TDCA group: 5 mg/kg TDCA from Day 1 of DSS, FIG. 7B
[7] = DSS+preTDCA group: 5 mg/kg TDCA from 2 days before DSS, FIG. 7B

C[C@H](CCC(=O)NCCS(=O)(=O)O)[C@H]1CC[C@H]2[C@@H]3CC[C@@H]4C[C@H](O)CC[C@]4(C)[C@H]3C[C@H](O)[C@]12C [TDCA, sodium taurodeoxycholic acid]
colon length change ([1]; 2% DSS 7 days, 5 mg/kg TDCA oral gavage one time a day for 6 days, FIG. 2A): the decrease in colon length was slight | average histological score ([1]; 2% DSS 7 days, 5 mg/kg TDCA oral gavage, DSS+DPBS group about 7, FIG. 2C): about 4 | epithelial cell defects (histological state) [1, 2]: not observed | infiltration of inflammatory cells into the mucous membrane [1, 2]: slight | ulcer ([1]; 2% DSS 7 days, 5 mg/kg TDCA oral gavage, FIG. 2C): the ulcer was alleviated | colon length change ([1]; 2% DSS 7 days, 10, 5, 2.5, or 1 mg/kg TDCA, Day 8, FIG. 5A): the decrease in colon length was slight | epithelial cell defects (histological state) [1, 3]: not observed | infiltration of inflammatory cells into the mucous membrane [1, 3]: alleviated | colon length change ([1]; 2% DSS 7 days, TDCA at 5 and 10 mg/kg, Day 8, FIG. 5A): the decrease in colon length was slighter | average histological score ([1]; 2% DSS 7 days, TDCA at 5 and 10 mg/kg, Day 8, FIG. 5C): about 4 | ulcer alleviating effect ([1]; 2% DSS 7 days, TDCA at 5 and 10 mg/kg, Day 8, FIGS. 5B and 5C): superior | colon length change ([1]; DSS+TDCA group: 5 mg/kg TDCA from Day 1 of DSS, Day 8, FIG. 6C): the decrease in colon length was suppressed | colon length change ([1]; DSS+preTDCA group: 5 mg/kg TDCA from 2 days before DSS, Day 8, FIG. 6C): the decrease in colon length was suppressed | IL-6 in the colon tissue (IL-6; [4]): decreased | concentration of IL-6 in the colon tissue, compared with clinical prescription drugs (IL-6; [5]): equivalent to those by tofacitinib 10 mg/kg and 5-ASA 100 mg/kg | IL-6 in the colon tissue (IL-6; [6]): decreased | IL-6 in the colon tissue (IL-6; [7]): decreased | IL-1β in the colon tissue (IL-1β; [4]): decreased | concentration of IL-1β in the colon tissue, compared with clinical prescription drugs (IL-1β; [5]): more effectively suppressed the concentration of IL-1β than tofacitinib 10 mg/kg and 5-ASA 100 mg/kg | IL-1β in the colon tissue (IL-1β; [6]): decreased | IL-1β in the colon tissue (IL-1β; [7]): decreased | concentration of TNF-α in the colon tissue, compared with clinical prescription drugs (TNF-α; [5]): equivalent to those by tofacitinib 10 mg/kg and 5-ASA 100 mg/kg | TNF-α in the colon tissue (TNF-α; DSS+TDCA group: 5 mg/kg TDCA from Day 1 of DSS): decreased | TNF-α in the colon tissue (TNF-α; DSS+preTDCA group: 5 mg/kg TDCA from 2 days before DSS): decreased
